Results from patent US11059815B2, “Synthesis of small molecule histone deacetylase 6 degraders, compounds formed thereby, and pharmaceutical compositions containing them” (Wisconsin Alumni Research Foundation, priority 2018, dated 2021).

Target: T1, HDAC6 (Mus musculus, UniProt Q9Z2V5)
T1 construct: endogenous in cells; host or cells: mouse immortalized cell line 4935
T1 sequence (Q9Z2V5 1-1149): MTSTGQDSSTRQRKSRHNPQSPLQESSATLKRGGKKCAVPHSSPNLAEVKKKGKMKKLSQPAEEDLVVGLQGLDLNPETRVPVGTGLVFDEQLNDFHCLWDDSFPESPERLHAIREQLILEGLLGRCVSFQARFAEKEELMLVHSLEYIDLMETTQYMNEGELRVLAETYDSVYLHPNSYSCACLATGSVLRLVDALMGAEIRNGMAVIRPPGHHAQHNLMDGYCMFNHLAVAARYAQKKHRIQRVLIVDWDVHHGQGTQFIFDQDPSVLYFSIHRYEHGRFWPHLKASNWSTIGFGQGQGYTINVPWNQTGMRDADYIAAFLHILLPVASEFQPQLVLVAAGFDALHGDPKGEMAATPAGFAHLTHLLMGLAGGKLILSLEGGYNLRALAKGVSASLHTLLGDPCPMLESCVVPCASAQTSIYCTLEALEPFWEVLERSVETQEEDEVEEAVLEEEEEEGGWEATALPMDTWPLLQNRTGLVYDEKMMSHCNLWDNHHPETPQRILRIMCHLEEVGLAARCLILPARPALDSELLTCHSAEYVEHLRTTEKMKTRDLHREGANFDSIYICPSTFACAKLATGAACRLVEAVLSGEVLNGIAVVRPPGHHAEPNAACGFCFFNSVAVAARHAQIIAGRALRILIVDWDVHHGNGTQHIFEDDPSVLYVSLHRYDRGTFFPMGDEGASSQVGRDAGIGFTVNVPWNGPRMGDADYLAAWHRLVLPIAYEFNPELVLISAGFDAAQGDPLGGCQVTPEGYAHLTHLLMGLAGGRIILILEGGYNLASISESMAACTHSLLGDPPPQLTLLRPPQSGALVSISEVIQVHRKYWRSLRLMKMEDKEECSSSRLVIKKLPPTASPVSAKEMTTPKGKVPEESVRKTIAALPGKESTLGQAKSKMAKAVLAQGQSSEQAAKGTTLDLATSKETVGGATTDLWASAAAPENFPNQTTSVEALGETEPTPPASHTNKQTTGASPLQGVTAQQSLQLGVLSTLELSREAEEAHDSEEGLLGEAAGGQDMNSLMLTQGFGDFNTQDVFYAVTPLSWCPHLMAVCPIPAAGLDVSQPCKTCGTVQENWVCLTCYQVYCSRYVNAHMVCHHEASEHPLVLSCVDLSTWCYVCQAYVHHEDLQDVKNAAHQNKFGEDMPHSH
Test: In-cell ELISA of HDAC6 in mice immortalized cell line 4935
Assay type: cell-based
Details: mice immortalized cell line 4935, in-cell ELISA
Experimental: FIG. 19 is a dose-response curve for HDAC6 expression as a function of concentration for compounds 2 and 3j from Part 2 of the Example section.
The degradation efficiency of HDAC6 induced by 2 and 3j in mice immortalized cell line 4935 was also tested using western blot and in-cell ELISA. In concentrations ranging from 10 nM to 10 μM, VHL-based degrader 3j induced more HDAC6 degradation and tubulin acetylation than CRBN-based degrader 2 (data not shown). […] The maximal degradation percentage for HDAC6 induced by 3j is 56.8%, which is better than 45.3% of Dmax induced by compound 2. […] The VHL E3 ligase-based degrader 3j may have advantages over CRBN-based degrader 2 in animal studies using mice as the model system.

## CCCCN(Cc1ccc(C(=O)NO)cc1)C(=O)Nc1ccc(OCCCCCn2cc(CNc3cccc4c3C(=O)N(C3CCC(=O)NC3=O)C4=O)nn2)cc1 (centres unmarked) [Compound 2]
  DC50: ~17 nM
read-out: maximal degradation percentage for HDAC6 (Dmax)
  Dmax: 45.3%
